Earlier results, collected in patent publication US8575172B2 (Zysis Limited, priority 2006, dated 2013).
Read-outs that look alike come from different tables or passages of the source.

Columns and labels:
CYP2D6 = CYP2D6 (Homo sapiens, UniProt P10635)
[1] = system: cholinergic muscarinic receptors
[2] = system: alpha adrenergic receptors
[3] = single oral dose
5-HT2A receptor = 5-HT2A receptor (Homo sapiens, UniProt P28223)
5-HT1A receptor = molecular target: T1, 5-HT1A receptor (Homo sapiens, UniProt P08908)
T1 sequence (P08908 1-422): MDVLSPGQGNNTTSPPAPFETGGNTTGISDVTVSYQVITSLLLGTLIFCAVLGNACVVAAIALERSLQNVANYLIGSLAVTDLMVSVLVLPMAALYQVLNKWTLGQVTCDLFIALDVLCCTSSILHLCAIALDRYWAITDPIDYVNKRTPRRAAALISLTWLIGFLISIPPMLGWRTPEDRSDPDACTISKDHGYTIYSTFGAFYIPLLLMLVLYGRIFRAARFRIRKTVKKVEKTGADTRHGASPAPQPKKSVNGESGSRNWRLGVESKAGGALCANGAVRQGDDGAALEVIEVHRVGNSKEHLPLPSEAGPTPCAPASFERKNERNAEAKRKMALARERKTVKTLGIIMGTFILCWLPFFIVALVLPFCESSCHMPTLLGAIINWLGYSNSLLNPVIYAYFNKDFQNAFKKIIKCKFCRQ

[4] = CYP2D6 poor vs extensive metabolizers

Chain of CYP2D6 (P10635 whole entry): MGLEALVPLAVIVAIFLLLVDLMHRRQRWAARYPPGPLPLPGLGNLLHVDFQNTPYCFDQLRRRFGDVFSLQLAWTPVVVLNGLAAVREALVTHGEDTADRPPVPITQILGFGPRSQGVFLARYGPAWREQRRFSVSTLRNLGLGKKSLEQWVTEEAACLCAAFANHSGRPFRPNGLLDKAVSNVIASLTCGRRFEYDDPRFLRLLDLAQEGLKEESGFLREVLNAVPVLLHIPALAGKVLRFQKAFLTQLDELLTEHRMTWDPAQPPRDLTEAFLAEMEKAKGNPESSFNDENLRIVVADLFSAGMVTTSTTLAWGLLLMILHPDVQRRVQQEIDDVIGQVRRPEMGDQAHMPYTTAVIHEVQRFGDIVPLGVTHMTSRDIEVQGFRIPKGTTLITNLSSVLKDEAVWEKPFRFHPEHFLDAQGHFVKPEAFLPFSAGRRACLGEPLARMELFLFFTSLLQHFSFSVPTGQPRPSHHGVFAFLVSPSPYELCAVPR
Chain of 5-HT2A receptor (P28223 whole entry): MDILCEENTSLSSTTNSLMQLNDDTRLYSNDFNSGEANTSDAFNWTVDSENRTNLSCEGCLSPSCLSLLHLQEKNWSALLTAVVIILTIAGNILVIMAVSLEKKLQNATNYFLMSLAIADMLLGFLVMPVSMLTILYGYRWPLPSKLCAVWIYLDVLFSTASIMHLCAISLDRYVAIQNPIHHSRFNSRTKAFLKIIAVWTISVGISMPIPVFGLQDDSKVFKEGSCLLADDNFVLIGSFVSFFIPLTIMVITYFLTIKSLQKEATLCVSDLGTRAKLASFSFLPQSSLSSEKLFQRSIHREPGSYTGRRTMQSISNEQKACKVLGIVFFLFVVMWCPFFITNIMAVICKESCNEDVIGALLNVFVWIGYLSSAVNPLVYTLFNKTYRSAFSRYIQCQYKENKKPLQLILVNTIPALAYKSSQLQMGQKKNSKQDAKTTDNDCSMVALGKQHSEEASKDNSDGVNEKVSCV

For `O=C1CCc2ccc(OCCCCN3CCN(c4cccc(Cl)c4Cl)CC3)cc2N1` [aripiprazole, 7-[4-[4-(2,3-dichlorophenyl)piperazin-1-yl]butoxy]-3,4-dihydro-1H-quinolin-2-one], the mean elimination half-life (CYP2D6 extensive metabolizers (EMs)) is given as “about 75 hours”, the mean elimination half-life (CYP2D6 poor metabolizers (PMs)) is given as about 146 h and the “increase in aripiprazole exposure in PMs compared to EMs” value [4] is given as about 80%. For the same compound, the absorption (administered orally as the solution) was “well absorbed”, the absorption (after administration of the IR tablet) was “well absorbed” and the “higher exposure to the total active moieties in PMs compared to EMs” value (from a given dose of aripiprazole) was about 60%. For the same compound, the mean elimination half-life (in vivo) was “about 75 hours”, the “pharmacokinetics at steady state” value (in vivo) was “dose-proportional” and the “effect on the CYP2D6 pathway” value (CYP2D6) was “does not inhibit or induce”. For the same compound, the “affinity for cholinergic muscarinic receptors” value [1] was “no appreciable affinity”, the “affinity for histamine receptors” value (histamine receptors) was “moderate affinity” and the “affinity for alpha adrenergic receptors” value [2] was “moderate affinity”. The “oral dose recovered unchanged in the feces” value [3] was “approximately 18%”, the “unchanged aripiprazole excreted in the urine” value [3] was “Less than 1%” and the “administered radioactivity recovered in the feces” value ([3]; [14C]-labeled) was about 55%. For the same compound, the “administered radioactivity recovered in the urine” value ([3]; [14C]-labeled) was “approximately 25%”, the “profile at the 5-HT2A receptor” value (5-HT2A receptor) was “antagonist” and the “activity at the 5-HT1A receptor” value (5-HT1A receptor) was “partial agonist”.
For `O=c1ccc2ccc(OCCCCN3CCN(c4cccc(Cl)c4Cl)CC3)cc2[nH]1` [dehydro-aripiprazole], the “decrease in exposure to the active metabolite in PMs compared to EMs” value [4] is listed as about 30%, the “share of aripiprazole AUC in plasma” value (at steady state) is listed as “about 40%” and the mean elimination half-life (in vivo) is listed as about 94 h. For the same compound, the “share of the parent drug exposure in plasma” value (in vivo) was 40%.
